One assay deals with T1, transketolase (TK) (Mus musculus, UniProt P40142).
T1 construct: from tissue; host or cells: mouse blood, spleen, tumor, kidney, lung, liver (crude lysates)
T1 sequence (P40142 1-623): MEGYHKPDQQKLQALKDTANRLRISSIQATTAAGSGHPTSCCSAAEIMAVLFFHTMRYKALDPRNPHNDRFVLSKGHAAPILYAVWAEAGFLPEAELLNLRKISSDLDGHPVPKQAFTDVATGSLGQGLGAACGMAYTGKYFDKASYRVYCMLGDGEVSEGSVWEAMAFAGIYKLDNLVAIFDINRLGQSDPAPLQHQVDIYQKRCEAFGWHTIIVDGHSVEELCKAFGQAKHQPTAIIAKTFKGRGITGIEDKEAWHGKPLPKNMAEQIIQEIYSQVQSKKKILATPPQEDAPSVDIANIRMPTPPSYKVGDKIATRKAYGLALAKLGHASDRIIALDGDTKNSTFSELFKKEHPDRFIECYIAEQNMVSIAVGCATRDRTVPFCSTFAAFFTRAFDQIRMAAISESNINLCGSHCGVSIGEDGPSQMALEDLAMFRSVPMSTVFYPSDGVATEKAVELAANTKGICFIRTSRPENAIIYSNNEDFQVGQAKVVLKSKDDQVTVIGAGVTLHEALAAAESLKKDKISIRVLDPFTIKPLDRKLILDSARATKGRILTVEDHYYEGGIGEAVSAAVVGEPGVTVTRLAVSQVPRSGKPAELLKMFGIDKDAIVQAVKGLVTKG
In words: Transketolase activity in blood, tumors and tissues of treated mice (fluorescence NADH assay). It is filed as in vivo. As to conditions: 11 days i.p. twice per day. How it is done:
Blood samples from mice were taken (40 μl whole blood) serially or from mice sacrificed at the end of the experiment. Tissues, such as tumors (e.g. from implantation, xenograft, or arising spontaneously), brain, heart, kidney, liver, lung and spleen were taken and flash frozen in liquid nitrogen or on dry ice and stored in −80° C. until time of assay. Four volumes of cold lysis buffer (20 mM HEPES, pH 7.5, 1 mM EDTA, 0.2 g/l Triton X-100® and 0.2 g/L sodium deoxycholate, supplemented with 1 mM DTT and 1 mM PMSF just before use) were added to the blood, which was dissolved by vortexing. For blood that was frozen before coagulation, a clear lysate was obtained. If coagulation occurred, homogenization was used as described below for tissue. Tissues were suspended in lysis buffer in 10 ml round bottom tubes and homogenized with PowerGen 125® (Fisher Scientific) for four seconds at highest power while submerged in an ice-water bath. This step was repeated after a few seconds, as necessary. The lysate was used right away or else flash frozen and stored at −80° C. until assay time. Eighty microliters (80 μl) of lysate (containing 5 mg tissue/ml lysate for TK and kGDH, 0.5 mg/ml for G6PDH) were put directly in individual wells of a 96-well clear-bottomed assay plate. Twenty microliters (20 μl) of 5× reaction mix was added to initiate each enzymatic reaction.
Each reaction was monitored for the appearance of NADH (for transketolase, alpha-ketoglutarate dehydrogenase, pyruvate dehydrogenase) or NADPH (for glucose-6-phosphate dehydrogenase) at room temperature in a fluorescent plate reader with excitation at 340 nm and emission at 470 nm in kinetic mode. The velocity was determined by the slope of the initial linear range of increasing fluorescence, expressed in fluorescent units (FU)/min. The protein concentration in the lysate was determined using Bradford assays (BioRad) with BSA as a standard. The enzymatic velocity was normalized by the total protein concentration for inter-sample comparison. To obtain reliable results across samples, similar starting protein concentrations were prepared (within approximately 30%) so that the normalized velocity required only small adjustments. This was achieved by weighing the tissue and putting in lysis buffer so that the suspensions contained the same amount of tissue/ml lysis buffer for all samples.
For TK, 15 μl of 5× assay buffer containing final concentrations of 50 mM HEPES, 40 mM KCl, 2.5 mM MgCl2, 5 mM NaArsenate, 1 mM NAD, 2 unit/ml glyceraldehydes-3-phosphate dehydrogenase (GAPDH) was added to 80 μl of lysate. Reaction kinetics were monitored on a fluorescent plate reader to allow any possible background activity via GAPDH to burn out. Then 5 μl of substrate mix containing final concentrations of 0.5 mM ribose-5-phosphate and 0.5 mM xylulose-5-phosphate was added to initiate the reaction. The reaction kinetics were monitored using a fluorescent plate reader, and the slope of the initial linear range was recorded as the velocity of the reaction (FU/min). See FIG. 1 for the reaction scheme.
To investigate the amount of in vivo enzyme inhibition following treatment with an inhibitor, we administered a single dose of N3PT (100 mg/kg, intraperitoneally [i.p.]) and blood, spleen and brain samples were collected at various times from 0-120 hours after dosing. The enzymatic activities were determined as described in Example 1. TK activity was measured in blood and spleen. Because TK activity in the brain is below the detection limit of the assay, kGDH activity was measured in brain samples. Measurements were taken at various time intervals
We measured enzyme activity in an expanded panel of tissues from mice treated with N3PT or OxyT for 11 days i.p., twice per day. Samples were taken from tumors, blood, brain, heart, kidney, lung and spleen, and TK, kGDH and G6PDH activities were determined as described above.

The target of assay [1] is T2, glucose-6-phosphate dehydrogenase (G6PDH) (Mus musculus, UniProt Q00612).
T2 construct: from tissue; host or cells: mouse tumor, blood, brain, heart, kidney, liver, lung, spleen (crude lysates)
T2 sequence (Q00612 whole entry): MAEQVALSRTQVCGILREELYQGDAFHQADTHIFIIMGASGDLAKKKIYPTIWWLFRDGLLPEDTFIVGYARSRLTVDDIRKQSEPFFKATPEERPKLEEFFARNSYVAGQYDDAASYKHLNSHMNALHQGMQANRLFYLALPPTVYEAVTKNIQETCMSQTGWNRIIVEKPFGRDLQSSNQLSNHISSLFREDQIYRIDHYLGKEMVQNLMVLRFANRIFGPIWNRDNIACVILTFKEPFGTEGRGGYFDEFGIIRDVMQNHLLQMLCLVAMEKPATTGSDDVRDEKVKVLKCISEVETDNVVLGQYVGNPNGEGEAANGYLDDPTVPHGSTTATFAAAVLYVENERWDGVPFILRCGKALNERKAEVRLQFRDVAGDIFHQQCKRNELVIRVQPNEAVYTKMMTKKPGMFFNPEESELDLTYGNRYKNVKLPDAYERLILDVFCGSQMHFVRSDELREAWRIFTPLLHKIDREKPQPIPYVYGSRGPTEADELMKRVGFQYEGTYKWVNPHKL
As to the kind of experiment: Glucose-6-phosphate dehydrogenase activity in tissues of treated mice (fluorescence NADPH assay). As to conditions: 11 days i.p. twice per day, various organs. It is filed as in vivo. How it is done:
Blood samples from mice were taken (40 μl whole blood) serially or from mice sacrificed at the end of the experiment. Tissues, such as tumors (e.g. from implantation, xenograft, or arising spontaneously), brain, heart, kidney, liver, lung and spleen were taken and flash frozen in liquid nitrogen or on dry ice and stored in −80° C. until time of assay. Four volumes of cold lysis buffer (20 mM HEPES, pH 7.5, 1 mM EDTA, 0.2 g/l Triton X-100® and 0.2 g/L sodium deoxycholate, supplemented with 1 mM DTT and 1 mM PMSF just before use) were added to the blood, which was dissolved by vortexing. For blood that was frozen before coagulation, a clear lysate was obtained. […]
Each reaction was monitored for the appearance of NADH (for transketolase, alpha-ketoglutarate dehydrogenase, pyruvate dehydrogenase) or NADPH (for glucose-6-phosphate dehydrogenase) at room temperature in a fluorescent plate reader with excitation at 340 nm and emission at 470 nm in kinetic mode. The velocity was determined by the slope of the initial linear range of increasing fluorescence, expressed in fluorescent units (FU)/min. The protein concentration in the lysate was determined using Bradford assays (BioRad) with BSA as a standard. […]
We measured enzyme activity in an expanded panel of tissues from mice treated with N3PT or OxyT for 11 days i.p., twice per day. […]

With `Cc1ncc(C[n+]2csc(CCO)c2C)c(=O)[nH]1` [OxyT, oxythiamine], the “percent inhibition of TK activity in tumors” value at transketolase (TK) (100 mg/kg, compared to vehicle control) stood at 40%. Moreover, at transketolase (TK) (liver), the “liver enzymatic (TK) activity” value is on record as “hardly affected”. Besides, in assay [1], the “G6PDH enzymatic activity following treatment” value is “no significant decrease”.
